Converted amounts (≈) assume the structure as drawn. Values belong to the compound of their own block, whether it stands above or below them.
Legend:
Enterobacter cloacae = assay: Minimum inhibitory concentration (MIC), microtitration dilution method of Heifetz et al.; assay type: cell-based; parameters: unit not given here; conditions: Table 2
Staphylococcus aureus = assay: as above; assay type: cell-based; conditions: Table 2
Method: (§1) The compounds of this invention display antibacterial activity when tested by the microtitration dilution method reported by Heifetz et al., Antimicr. Agents & Chemoth., 6. 124 (1974). Minimum inhibitory concentrations (MICs, in μg/ml) for but a few representative compounds according to this invention were determined by the above-mentioned method.

Klebsiella oxytoca = assay: as above; assay type: cell-based; conditions: Table 2
Method: as §1

Streptococcus faecalis = assay: as above; assay type: cell-based
Method: as §1

Streptococcus faecium = assay: as above; assay type: cell-based; conditions: Table 2
Method: as §1

Escherichia coli = assay: as above; assay type: cell-based; conditions: Table 2
Method: as §1

Pseudomonas aeruginosa = assay: as above; assay type: cell-based; conditions: Table 2
Method: as §1

[1] = from Tables 2, 3 and 4

- MIC E. clo. (Enterobacter cloacae): 0.06
- MIC S. aur. (Staphylococcus aureus): 0.03 µg/mL (≈ 0.0801 µM)
- MIC K. oxyto. (Klebsiella oxytoca): 0.5 µg/mL (≈ 1.34 µM)
- MIC S. faecal. (Streptococcus faecalis; Table 2, Streptococcus faecalis): 0.5 µg/mL (≈ 1.34 µM)
- MIC S. faeci. (Streptococcus faecium): 2.0 µg/mL (≈ 5.34 µM)
- MIC E. coli (Escherichia coli): 0.13 µg/mL (≈ 0.347 µM)
- MIC P. aer. (Pseudomonas aeruginosa): 1.0 µg/mL (≈ 2.67 µM)
SMILES: CC(C)(C)n1cc(C(=O)O)c(=O)c2cc(F)c(N3C[C@@H]4CC[C@H]3CN4)nc21 [Example 23, 7-(1S,4S-2,5-diazabicyclo[2.2.2]octan-2-yl)-1-(1,1-dimethylethyl)-1,4-dihydro-6-fluoro-4-oxo-1,8-naphthyridine-3-carboxylic acid]

SMILES: CC(C)(C)n1cc(C(=O)O)c(=O)c2cc(F)c(N3C[C@H]4C[C@@H]3CN4)nc21 [Example 30, 7-(1R,4R-2,5-diazabicyclo[2.2.1]heptan-2-yl)-1-(1,1-dimethylethyl)-1,4-dihydro-6-fluoro-4-oxo-1,8-naphthyridine-3-carboxylic acid]
- combination of anti-bacterial, toxicity, and water-solubility properties [1]: highly advantageous combination of the above mentioned properties

SMILES: O=C(O)c1cn(C2CC2)c2cc(N3CCNCC3)c(F)cc2c1=O [Cip., 1-cyclopropyl-6-fluoro-1,4-dihydro-7-(1-piperazinyl)-4-oxo-quinoline-3-carboxylic acid, reference compound]
- MIC (Streptococcus faecalis; Enterococcus faecalis, read-out: MIC S. faecal.): 0.5 µg/mL (≈ 1.51 µM)
